Experimental data taken from the Kinase Knowledgebase extract (Sharma et al. 2016).

Key:
[1] = biological target: PIK3CA (human) (UniProt P42336); assay: Assessment of PIK3CA Kinase Activity
[2] = biological target: PIK3CG (human) (UniProt P48736); assay: Assessment of PIK3CG Kinase Activity
Sequence of PIK3CG (human) (P48736 whole entry, looked up): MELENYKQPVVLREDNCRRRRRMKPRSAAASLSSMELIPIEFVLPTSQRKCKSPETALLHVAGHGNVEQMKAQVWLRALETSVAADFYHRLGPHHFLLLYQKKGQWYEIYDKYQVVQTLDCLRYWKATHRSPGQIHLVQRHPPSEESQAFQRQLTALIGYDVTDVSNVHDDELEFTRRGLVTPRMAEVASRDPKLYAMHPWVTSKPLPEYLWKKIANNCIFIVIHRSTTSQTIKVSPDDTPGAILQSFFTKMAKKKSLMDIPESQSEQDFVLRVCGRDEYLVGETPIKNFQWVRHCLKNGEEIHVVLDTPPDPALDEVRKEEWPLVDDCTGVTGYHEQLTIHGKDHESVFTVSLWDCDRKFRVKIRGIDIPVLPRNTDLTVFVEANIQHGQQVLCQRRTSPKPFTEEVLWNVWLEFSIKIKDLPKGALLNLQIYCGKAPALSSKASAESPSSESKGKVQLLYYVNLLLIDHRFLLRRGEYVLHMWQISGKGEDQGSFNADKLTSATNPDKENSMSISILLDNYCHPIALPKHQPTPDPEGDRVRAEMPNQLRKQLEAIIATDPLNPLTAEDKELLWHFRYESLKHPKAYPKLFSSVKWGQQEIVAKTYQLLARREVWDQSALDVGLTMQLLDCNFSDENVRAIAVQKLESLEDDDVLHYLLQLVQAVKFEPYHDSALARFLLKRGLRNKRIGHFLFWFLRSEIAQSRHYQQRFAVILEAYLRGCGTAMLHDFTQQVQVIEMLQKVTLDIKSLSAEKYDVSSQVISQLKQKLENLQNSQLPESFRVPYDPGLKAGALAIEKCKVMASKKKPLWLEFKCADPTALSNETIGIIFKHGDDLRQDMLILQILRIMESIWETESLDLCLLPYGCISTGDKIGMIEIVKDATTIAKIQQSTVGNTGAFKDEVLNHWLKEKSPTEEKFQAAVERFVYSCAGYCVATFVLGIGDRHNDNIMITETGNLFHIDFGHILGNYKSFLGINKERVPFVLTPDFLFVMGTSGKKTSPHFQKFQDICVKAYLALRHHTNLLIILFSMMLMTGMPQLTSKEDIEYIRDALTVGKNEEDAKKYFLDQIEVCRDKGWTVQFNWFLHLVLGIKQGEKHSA

Sequence of PIK3CA (human) (P42336 whole entry, looked up): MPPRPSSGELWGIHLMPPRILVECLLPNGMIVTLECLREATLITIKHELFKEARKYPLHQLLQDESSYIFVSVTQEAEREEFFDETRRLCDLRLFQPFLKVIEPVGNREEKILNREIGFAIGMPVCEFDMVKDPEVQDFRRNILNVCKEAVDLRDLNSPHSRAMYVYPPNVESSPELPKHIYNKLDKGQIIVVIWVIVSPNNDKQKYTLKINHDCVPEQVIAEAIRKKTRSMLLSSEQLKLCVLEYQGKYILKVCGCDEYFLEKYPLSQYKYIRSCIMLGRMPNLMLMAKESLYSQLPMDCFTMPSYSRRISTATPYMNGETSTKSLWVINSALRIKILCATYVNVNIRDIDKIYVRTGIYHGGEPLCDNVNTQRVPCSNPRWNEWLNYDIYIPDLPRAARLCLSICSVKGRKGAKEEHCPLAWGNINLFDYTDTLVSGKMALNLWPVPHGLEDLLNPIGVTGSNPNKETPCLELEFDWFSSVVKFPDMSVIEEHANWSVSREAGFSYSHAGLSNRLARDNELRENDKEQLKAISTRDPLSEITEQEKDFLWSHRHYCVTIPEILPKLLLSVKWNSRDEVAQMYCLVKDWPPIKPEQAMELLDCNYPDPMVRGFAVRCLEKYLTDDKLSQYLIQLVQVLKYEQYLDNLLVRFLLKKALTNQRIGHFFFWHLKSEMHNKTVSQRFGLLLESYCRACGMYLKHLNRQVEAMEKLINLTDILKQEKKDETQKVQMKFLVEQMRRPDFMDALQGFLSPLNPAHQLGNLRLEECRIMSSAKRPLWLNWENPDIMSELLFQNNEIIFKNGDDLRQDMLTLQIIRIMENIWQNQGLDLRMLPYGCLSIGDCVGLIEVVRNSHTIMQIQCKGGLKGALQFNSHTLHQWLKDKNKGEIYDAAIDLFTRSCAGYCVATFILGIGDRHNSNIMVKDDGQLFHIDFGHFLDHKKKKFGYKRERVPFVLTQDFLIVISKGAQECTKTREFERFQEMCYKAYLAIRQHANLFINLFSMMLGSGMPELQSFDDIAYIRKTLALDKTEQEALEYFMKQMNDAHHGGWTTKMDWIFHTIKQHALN

Row | SMILES | IC50 [1] | IC50 [2]
1 | CS(=O)(=O)N1Cc2nc(-c3ccc(NC(=O)Nc4cccnc4)cc3)nc(N3C4CCC3COC4)c2C1 | 732 nM | > 10000 nM
2 | CNC(=O)Nc1ccc(-c2nc3c(c(N4CC5CCC(C4)O5)n2)CN(S(C)(=O)=O)C3)cc1 | 6 nM | 116 nM
3 | CN(C)C1CCN(C(=O)c2ccc(NC(=O)Nc3ccc(-c4nc5c(c(N6C7CCC6COC7)n4)CCNC5)cc3)cc2)CC1 | 321 nM | 3720 nM
4 | O=C(Nc1ccc(-c2nc3c(c(N4CC5CCC(C4)O5)n2)CNC3)cc1)Nc1cccnc1 | 59 nM | 1860 nM
5 | CNC(=O)Nc1ccc(-c2nc3c(c(N4CC5CCC(C4)O5)n2)CCN(S(=O)(=O)c2ccc(F)cc2)C3)cc1 |  | 600 nM
6 | C=CCNC(=O)N1CCc2c(nc(-c3ccc(NC(=O)NC)cc3)nc2N2CC3CCC(C2)O3)C1 |  | 375 nM
7 | CN(C)C1CCN(C(=O)c2ccc(NC(=O)Nc3ccc(-c4nc5c(c(N6CCOCC6)n4)CCN(S(C)(=O)=O)C5)cc3)cc2)CC1 | 315 nM | 3110 nM
8 | CNC(=O)Nc1ccc(-c2nc3c(c(N4CC5CCC(C4)O5)n2)CCN(C(=O)OCC(C)C)C3)cc1 |  | 350 nM
9 | O=C(Nc1ccc(-c2nc3c(c(N4C5CCC4COC5)n2)CCNC3)cc1)Nc1cccnc1 | 1790 nM | > 10000 nM
10 | CN(C)C1CCN(C(=O)c2ccc(NC(=O)Nc3ccc(-c4nc5c(c(N6C7CCC6COC7)n4)CNC5)cc3)cc2)CC1 | 301 nM | > 10000 nM
11 | CNC(=O)Nc1ccc(-c2nc3c(c(N4CC5CCC(C4)O5)n2)CCN(C(=O)c2ccccc2OC)C3)cc1 |  | 900 nM
12 | CNC(=O)Nc1ccc(-c2nc3c(c(N4CCOCC4)n2)CN(S(C)(=O)=O)C3)cc1 | 1 nM | 23 nM
13 | CNC(=O)Nc1ccc(-c2nc3c(c(N4CC5CCC(C4)O5)n2)CCN(S(C)(=O)=O)C3)cc1 | 557 nM | > 10000 nM
14 | O=C(Nc1ccc(-c2nc3c(c(N4CCOCC4)n2)CNC3)cc1)Nc1cccnc1 | 5 nM | 68 nM
15 | CCCCC(=O)N1CCc2c(nc(-c3ccc(NC(=O)NC)cc3)nc2N2CC3CCC(C2)O3)C1 |  | 545 nM
16 | O=C(Nc1ccc(-c2nc3c(c(N4C5CCC4COC5)n2)CNC3)cc1)Nc1cccnc1 | 25 nM | 841 nM
17 | CNC(=O)Nc1ccc(-c2nc3c(c(N4C5CCC4COC5)n2)CN(S(C)(=O)=O)C3)cc1 | 4 nM | 70 nM
18 | CNC(=O)Nc1ccc(-c2nc3c(c(N4C5CCC4COC5)n2)CCNC3)cc1 | 3760 nM | > 10000 nM
19 | CNC(=O)Nc1ccc(-c2nc3c(c(N4CC5CCC(C4)O5)n2)CCN(C(=O)c2ccc(C(C)(C)C)cc2)C3)cc1 |  | 3350 nM
20 | CCCCOC(=O)N1CCc2c(nc(-c3ccc(NC(=O)NC)cc3)nc2N2CC3CCC(C2)O3)C1 |  | 375 nM

Row | SMILES | IC50 [1] | IC50 [2]
21 | CN(C)C1CCN(C(=O)c2ccc(NC(=O)Nc3ccc(-c4nc5c(c(N6CCOCC6)n4)CCNC5)cc3)cc2)CC1 | 31 nM | 224 nM
22 | CCCCNC(=O)N1CCc2c(nc(-c3ccc(NC(=O)NC)cc3)nc2N2CC3CCC(C2)O3)C1 |  | 375 nM
23 | CNC(=O)Nc1ccc(-c2nc3c(c(N4CC5CCC(C4)O5)n2)CCN(C(=O)C(C)(C)C)C3)cc1 |  | 300 nM
24 | CNC(=O)Nc1ccc(-c2nc3c(c(N4CC5CCC(C4)O5)n2)CCN(C(=O)COC)C3)cc1 |  | 830 nM
25 | CNC(=O)Nc1ccc(-c2nc3c(c(N4CC5CCC(C4)O5)n2)CCN(C(=O)c2c(F)cccc2F)C3)cc1 |  | 300 nM
26 | CS(=O)(=O)N1Cc2nc(-c3ccc(NC(=O)Nc4cccnc4)cc3)nc(N3CCOCC3)c2C1 | 45 nM | 782 nM
27 | CNC(=O)Nc1ccc(-c2nc3c(c(N4CC5CCC(C4)O5)n2)CCN(C)C3)cc1 | 3340 nM | > 10000 nM
28 | CNC(=O)Nc1ccc(-c2nc3c(c(N4C5CCC4COC5)n2)CCN(S(C)(=O)=O)C3)cc1 | 582 nM | > 10000 nM
29 | CNC(=O)Nc1ccc(-c2nc3c(c(N4CC5CCC(C4)O5)n2)CCN(C(=O)NC(C)(C)C)C3)cc1 |  | 375 nM
30 | CN1CCc2c(nc(-c3ccc(NC(=O)Nc4cccnc4)cc3)nc2N2CC3CCC(C2)O3)C1 | 674 nM | 9500 nM
31 | CNC(=O)Nc1ccc(-c2nc3c(c(N4C5CCC4COC5)n2)CCN(C)C3)cc1 | 4410 nM | > 10000 nM
32 | CS(=O)(=O)N1CCc2c(nc(-c3ccc(NC(=O)Nc4cccnc4)cc3)nc2N2C3CCC2COC3)C1 | 118 nM | 3990 nM
33 | CNC(=O)Nc1ccc(-c2nc3c(c(N4CC5CCC(C4)O5)n2)CCN(S(=O)(=O)c2ccc(C#N)cc2)C3)cc1 |  | 4000 nM
34 | CN(C)C1CCN(C(=O)c2ccc(NC(=O)Nc3ccc(-c4nc5c(c(N6CC7CCC(C6)O7)n4)CNC5)cc3)cc2)CC1 | 110 nM | > 10000 nM
35 | CS(=O)(=O)N1CCc2c(nc(-c3ccc(NC(=O)Nc4cccnc4)cc3)nc2N2CC3CCC(C2)O3)C1 | 107 nM | 1240 nM
36 | O=C(Nc1ccc(-c2nc3c(c(N4CC5CCC(C4)O5)n2)CCNC3)cc1)Nc1cccnc1 | 776 nM | 14000 nM
37 | CNC(=O)Nc1ccc(-c2nc3c(c(N4CCOCC4)n2)CNC3)cc1 | 5 nM | 67 nM
38 | CN(C)C1CCN(C(=O)c2ccc(NC(=O)Nc3ccc(-c4nc5c(c(N6CC7CCC(C6)O7)n4)CCN(S(C)(=O)=O)C5)cc3)cc2)CC1 | 2690 nM | > 10000 nM
39 | CNC(=O)Nc1ccc(-c2nc3c(c(N4CC5CCC(C4)O5)n2)CCNC3)cc1 | 2720 nM | > 10000 nM
40 | CS(=O)(=O)N1Cc2nc(-c3ccc(NC(=O)Nc4cccnc4)cc3)nc(N3CC4CCC(C3)O4)c2C1 | 334 nM | > 10000 nM

Row | SMILES | IC50 [1] | IC50 [2]
41 | CN(C)C1CCN(C(=O)c2ccc(NC(=O)Nc3ccc(-c4nc5c(c(N6CCOCC6)n4)CN(S(C)(=O)=O)C5)cc3)cc2)CC1 | 1 nM | 8 nM
42 | CN1CCc2c(nc(-c3ccc(NC(=O)Nc4cccnc4)cc3)nc2N2CCOCC2)C1 | 111 nM | 1370 nM
43 | CNC(=O)Nc1ccc(-c2nc3c(c(N4CC5CCC(C4)O5)n2)CCN(C(=O)c2ccccc2F)C3)cc1 |  | 360 nM
44 | CN(C)C1CCN(C(=O)c2ccc(NC(=O)Nc3ccc(-c4nc5c(c(N6CCOCC6)n4)CNC5)cc3)cc2)CC1 | 9 nM | 74 nM
45 | CS(=O)(=O)N1CCc2c(nc(-c3ccc(NC(=O)Nc4cccnc4)cc3)nc2N2CCOCC2)C1 | 3.5 nM | 44 nM
46 | CCCCCCNC(=O)N1CCc2c(nc(-c3ccc(NC(=O)NC)cc3)nc2N2CC3CCC(C2)O3)C1 |  | 195 nM
47 | CN(C)C1CCN(C(=O)c2ccc(NC(=O)Nc3ccc(-c4nc5c(c(N6C7CCC6COC7)n4)CCN(S(C)(=O)=O)C5)cc3)cc2)CC1 | 1330 nM | > 10000 nM
48 | CNC(=O)Nc1ccc(-c2nc3c(c(N4CC5CCC(C4)O5)n2)CCN(S(=O)(=O)N(C)C)C3)cc1 |  | 190 nM
49 | O=C(Nc1ccc(-c2nc3c(c(N4CCOCC4)n2)CCNC3)cc1)Nc1cccnc1 | 66 nM | 715 nM
50 | CNC(=O)Nc1ccc(-c2nc3c(c(N4CC5CCC(C4)O5)n2)CCN(C(=O)NC2CCCCC2)C3)cc1 |  | 600 nM
51 | CNC(=O)Nc1ccc(-c2nc3c(c(N4CC5CCC(C4)O5)n2)CCN(S(=O)(=O)c2ccccc2)C3)cc1 |  | 205 nM
52 | CCCCCCC(=O)N1CCc2c(nc(-c3ccc(NC(=O)NC)cc3)nc2N2CC3CCC(C2)O3)C1 |  | 960 nM
53 | CNC(=O)Nc1ccc(-c2nc3c(c(N4CC5CCC(C4)O5)n2)CCN(C(=O)CCC2CCCC2)C3)cc1 |  | 1050 nM
54 | CNC(=O)Nc1ccc(-c2nc3c(c(N4CC5CCC(C4)O5)n2)CNC3)cc1 | 39 nM | 3390 nM
55 | CN(C)C1CCN(C(=O)c2ccc(NC(=O)Nc3ccc(-c4nc5c(c(N6CC7CCC(C6)O7)n4)CCNC5)cc3)cc2)CC1 | 1120 nM | 3950 nM
56 | CNC(=O)Nc1ccc(-c2nc3c(c(N4C5CCC4COC5)n2)CNC3)cc1 | 288 nM | 7290 nM
57 | CN(C)C1CCN(C(=O)c2ccc(NC(=O)Nc3ccc(-c4nc5c(c(N6C7CCC6COC7)n4)CN(S(C)(=O)=O)C5)cc3)cc2)CC1 | 67 nM | 573 nM
58 | CN1CCc2c(nc(-c3ccc(NC(=O)Nc4cccnc4)cc3)nc2N2C3CCC2COC3)C1 | 1110 nM | 12000 nM
